# Tested on: MOLM-13 cells
# Assay: MOLM-13 Cell Proliferation Assay (indicator of DHODH inhibition)
# Type: cell-based
# Details: Homo sapiens, 72 Hours of culture, CellTiter-Glo, no uridine
# Method in brief: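 Proliferation readout via CellTiter-Glo luminescence after 72 h compound treatment (37 °C, 5% CO2, 0.5% DMSO) of MOLM-13 cells seeded at 10^4 per well in RPMI 1640/10% FBS, used as a DHODH-inhibition indicator since these cells rely on de novo pyrimidine synthesis.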
row,IC50 [nM],SMILES
1,3.7,"Cc1cc(C#N)nc(N2CCc3c([nH]c4cc(F)c(Cl)cc34)C2c2cccc(F)c2F)n1 (stereo not shown) [Compound 152, 2-[6-chloro-1-(2,3-difluorophenyl)-7-fluoro-1,3,4,9-tetrahydro-2H-pyrido[3,4-b]indol-2-yl]-6-methylpyrimidine-4-carbonitrile]"
2,2,"Cc1nc(N2CCc3c([nH]c4ccc(Cl)cc34)[C@@H]2c2ccc(N3CCOCC3)nc2)nc(C#N)c1F [Compound 424, 2-{(1S)-6-chloro-1-[6-(morpholin-4-yl)pyridin-3-yl]-1,3,4,9-tetrahydro-2H-pyrido[3,4-b]indol-2-yl}-5-fluoro-6-methylpyrimidine-4-carbonitrile]"
3,21.2,"Fc1ccc(C2c3[nH]c4ccc(Cl)c(F)c4c3CCN2c2ncc(Cl)cn2)cc1 (stereo not shown) [Compound 49, 6-chloro-2-(5-chloropyrimidin-2-yl)-5-fluoro-1-(4-fluorophenyl)-2,3,4,9-tetrahydro-1H-pyrido[3,4-b]indole]"
4,4.1,"CCCCOC(=O)c1ccnc(N2CCc3c([nH]c4ccc(Cl)cc34)C2c2ccc(C)cc2)n1 (stereo not shown) [Compound 280, butyl 2-[6-chloro-1-(4-methylphenyl)-1,3,4,9-tetrahydro-2H-pyrido[3,4-b]indol-2-yl]pyrimidine-4-carboxylate]"
5,2.2,"Fc1cccc(C2c3[nH]c4ccc(Cl)cc4c3CCN2c2nccc(C(F)(F)F)n2)c1F (stereo not shown) [Compound 119, 6-chloro-1-(2,3-difluorophenyl)-2-[4-(trifluoromethyl)pyrimidin-2-yl]-2,3,4,9-tetrahydro-1H-pyrido[3,4-b]indole]"
6,0.8,"Cc1ccc([C@H]2c3[nH]c4ccc(Cl)cc4c3CCN2c2nc(C)c(F)c(C#N)n2)c(F)c1F [Compound 413, 2-[(1S)-6-chloro-1-(2,3-difluoro-4-methylphenyl)-1,3,4,9-tetrahydro-2H-pyrido[3,4-b]indol-2-yl]-5-fluoro-6-methylpyrimidine-4-carbonitrile]"
7,33.2,"Cc1nc(C)nc(N2CCc3c([nH]c4ccc(Cl)cc34)C2c2ccc(N3C[C@H]4C[C@@H]3CO4)nc2)n1 (stereo partly drawn) [Compound 376, 6-chloro-2-(4,6-dimethyl-1,3,5-triazin-2-yl)-1-{6-[(1R,4R)-2-oxa-5-azabicyclo[2.2.1]heptan-5-yl]pyridin-3-yl}-2,3,4,9-tetrahydro-1H-pyrido[3,4-b]indole]"
8,22.2,"Cc1ccnc(N2CCc3c([nH]c4cc(F)c(Cl)cc34)C2c2cnc(N(C)C)nc2)n1 (stereo not shown) [Compound 94, 5-[6-chloro-7-fluoro-2-(4-methylpyrimidin-2-yl)-2,3,4,9-tetrahydro-1H-pyrido[3,4-b]indol-1-yl]-N,N-dimethylpyrimidin-2-amine]"
9,6.1,"Oc1cc(C2c3[nH]c4ccc(Cl)cc4c3CCN2c2nccc(C(F)(F)F)n2)ccc1Cl (stereo not shown) [Compound 218, 2-chloro-5-{6-chloro-2-[4-(trifluoromethyl)pyrimidin-2-yl]-2,3,4,9-tetrahydro-1H-pyrido[3,4-b]indol-1-yl}phenol]"
10,32.3,"CN(C)c1ccc(C2c3[nH]c4cc(F)c(Cl)cc4c3CCN2c2ncc(F)cn2)cn1 (stereo not shown) [Compound 34, 5-[6-chloro-7-fluoro-2-(5-fluoropyrimidin-2-yl)-2,3,4,9-tetrahydro-1H-pyrido[3,4-b]indol-1-yl]-N,N-dimethylpyridin-2-amine]"
11,17.6,"Fc1ccc(C2c3[nH]c4cc(F)c(Cl)cc4c3CCN2c2nccc(C(F)(F)F)n2)cc1 (stereo not shown) [Compound 24, 6-chloro-7-fluoro-1-(4-fluorophenyl)-2-[4-(trifluoromethyl)pyrimidin-2-yl]-2,3,4,9-tetrahydro-1H-pyrido[3,4-b]indole]"
12,22.2,"FC(F)(F)c1ccnc(N2CCc3c([nH]c4ccc(-n5cccc5)cc34)C2c2cnc(N3CCOCC3)nc2)n1 (stereo not shown) [Compound 314, 1-[2-(morpholin-4-yl)pyrimidin-5-yl]-6-(1H-pyrrol-1-yl)-2-[4-(trifluoromethyl)pyrimidin-2-yl]-2,3,4,9-tetrahydro-1H-pyrido[3,4-b]indole]"
13,0.8,"Cc1ccc([C@H]2c3[nH]c4ccc(Br)cc4c3CCN2c2nc(C(F)(F)F)cc(C(F)(F)F)n2)c(F)c1F [Compound 518, (1S)-2-[4,6-bis(trifluoromethyl)pyrimidin-2-yl]-6-bromo-1-(2,3-difluoro-4-methylphenyl)-2,3,4,9-tetrahydro-1H-pyrido[3,4-b]indole]"
14,2.2,"Cc1ccc(C2c3[nH]c4c(O)cc(Cl)cc4c3CCN2c2nccc(C(F)(F)F)n2)cc1 (stereo not shown) [Compound 207, 6-chloro-1-(4-methylphenyl)-2-[4-(trifluoromethyl)pyrimidin-2-yl]-2,3,4,9-tetrahydro-1H-pyrido[3,4-b]indol-8-ol]"
15,4.6,"CN(C)c1ncc(C2c3[nH]c4cc(F)c(Cl)cc4c3CCN2c2nccc(C(F)(F)F)n2)cn1 (stereo not shown) [Compound 95, 5-{6-chloro-7-fluoro-2-[4-(trifluoromethyl)pyrimidin-2-yl]-2,3,4,9-tetrahydro-1H-pyrido[3,4-b]indol-1-yl}-N,N-dimethylpyrimidin-2-amine]"
16,9.4,"NS(=O)(=O)c1ccc(C2c3[nH]c4cc(F)c(Cl)cc4c3CCN2c2nccc(C(F)(F)F)n2)cc1 (stereo not shown) [Compound 115, 4-{6-chloro-7-fluoro-2-[4-(trifluoromethyl)pyrimidin-2-yl]-2,3,4,9-tetrahydro-1H-pyrido[3,4-b]indol-1-yl}benzene-1-sulfonamide]"
17,30.2,"CN(C)c1ncc(C2c3[nH]c4cc(F)c(Cl)cc4c3CCN2c2ncc(F)cn2)cn1 (stereo not shown) [Compound 14, 5-[6-chloro-7-fluoro-2-(5-fluoropyrimidin-2-yl)-2,3,4,9-tetrahydro-1H-pyrido[3,4-b]indol-1-yl]-N,N-dimethylpyrimidin-2-amine]"
18,9.3,"Fc1ccc(C2c3[nH]c4ccc(Cl)c(F)c4c3CCN2c2nccc(C(F)(F)F)n2)cc1 (stereo not shown) [Compound 60, 6-chloro-5-fluoro-1-(4-fluorophenyl)-2-[4-(trifluoromethyl)pyrimidin-2-yl]-2,3,4,9-tetrahydro-1H-pyrido[3,4-b]indole]"
19,18.9,"Fc1cnc(N2CCc3c([nH]c4ccc(Cl)c(F)c34)C2c2ccc(Cl)cc2)nc1 (stereo not shown) [Compound 26, 6-chloro-1-(4-chlorophenyl)-5-fluoro-2-(5-fluoropyrimidin-2-yl)-2,3,4,9-tetrahydro-1H-pyrido[3,4-b]indole]"
20,38,"N#Cc1ncnc(N2CCc3c([nH]c4ccc(Cl)cc34)[C@@H]2c2cnc(N3CCOCC3)nc2)n1 [Compound 414, 4-{(1S)-6-chloro-1-[2-(morpholin-4-yl)pyrimidin-5-yl]-1,3,4,9-tetrahydro-2H-pyrido[3,4-b]indol-2-yl}-1,3,5-triazine-2-carbonitrile]"
21,1.3,"Cc1cc(C(F)(F)F)nc(N2CCc3c([nH]c4cc(F)c(Cl)cc34)C2c2cccc(F)c2F)n1 (stereo not shown) [Compound 147, 6-chloro-1-(2,3-difluorophenyl)-7-fluoro-2-[4-methyl-6-(trifluoromethyl)pyrimidin-2-yl]-2,3,4,9-tetrahydro-1H-pyrido[3,4-b]indole]"
22,3.7,"Cc1ccc([C@H]2c3[nH]c4ccc(Cl)cc4c3CCN2c2nc(C)nc(C#N)n2)cc1 [Compound 411, 4-[(1S)-6-chloro-1-(4-methylphenyl)-1,3,4,9-tetrahydro-2H-pyrido[3,4-b]indol-2-yl]-6-methyl-1,3,5-triazine-2-carbonitrile]"
23,0.8,"Cc1ccc(C2c3[nH]c4ccc(Cl)c(F)c4c3CCN2c2nc(C(F)(F)F)cc(C(F)(F)F)n2)c(F)c1F (stereo not shown) [Compound 209, 2-[4,6-bis(trifluoromethyl)pyrimidin-2-yl]-6-chloro-1-(2,3-difluoro-4-methylphenyl)-5-fluoro-2,3,4,9-tetrahydro-1H-pyrido[3,4-b]indole]"
24,0.8,"Cc1ccnc(N2CCc3c([nH]c4ccc(Cl)cc34)[C@@H]2c2ccc(C)c(F)c2F)n1 [Compound 234, (1S)-6-chloro-1-(2,3-difluoro-4-methylphenyl)-2-(4-methylpyrimidin-2-yl)-2,3,4,9-tetrahydro-1H-pyrido[3,4-b]indole]"
25,4.5,"Cc1ccc(C2c3[nH]c4cc(F)c(Cl)cc4c3CCN2c2nc(C)cc(C#N)n2)cc1 (stereo not shown) [Compound 151, 2-[6-chloro-7-fluoro-1-(4-methylphenyl)-1,3,4,9-tetrahydro-2H-pyrido[3,4-b]indol-2-yl]-6-methylpyrimidine-4-carbonitrile]"
26,59.7,"Fc1ccc(C2c3[nH]c4cc(F)c(Cl)cc4c3CCN2c2ncc(Cl)cn2)cc1 (stereo not shown) [Compound 4, 6-chloro-2-(5-chloropyrimidin-2-yl)-7-fluoro-1-(4-fluorophenyl)-2,3,4,9-tetrahydro-1H-pyrido[3,4-b]indole]"
27,2.5,"Fc1ccc(C2c3[nH]c4ccc(Cl)cc4c3CCN2c2nccc(C(F)(F)F)n2)c(F)c1F (stereo not shown) [Compound 263, 6-chloro-2-[4-(trifluoromethyl)pyrimidin-2-yl]-1-(2,3,4-trifluorophenyl)-2,3,4,9-tetrahydro-1H-pyrido[3,4-b]indole]"
28,4.8,"N#Cc1ccc(C2c3[nH]c4ccc(Cl)cc4c3CCN2c2nccc(C(F)(F)F)n2)cc1 (stereo not shown) [Compound 447, 4-{6-chloro-2-[4-(trifluoromethyl)pyrimidin-2-yl]-2,3,4,9-tetrahydro-1H-pyrido[3,4-b]indol-1-yl}benzonitrile]"
29,10.1,"Fc1cnc(N2CCc3c([nH]c4ccc(Cl)cc34)C2c2cnc(N3CCOCC3)nc2)nc1 (stereo not shown) [Compound 364, 6-chloro-2-(5-fluoropyrimidin-2-yl)-1-[2-(morpholin-4-yl)pyrimidin-5-yl]-2,3,4,9-tetrahydro-1H-pyrido[3,4-b]indole]"
30,3,"Cc1nc(C)nc(N2CCc3c([nH]c4ccc(Cl)cc34)C2c2ccc(N3CCOCC3)nc2F)n1 (stereo not shown) [Compound 459, 6-chloro-2-(4,6-dimethyl-1,3,5-triazin-2-yl)-1-[2-fluoro-6-(morpholin-4-yl)pyridin-3-yl]-2,3,4,9-tetrahydro-1H-pyrido[3,4-b]indole]"

row,SMILES,IC50 [nM]
1,"Fc1cnc(N2CCc3c([nH]c4cc(F)c(Cl)cc34)C2c2ccc(F)nc2)nc1 (stereo not shown) [Compound 47, 6-chloro-7-fluoro-1-(6-fluoropyridin-3-yl)-2-(5-fluoropyrimidin-2-yl)-2,3,4,9-tetrahydro-1H-pyrido[3,4-b]indole]",140

# Reference: patent US20250186437A1, “CARBOLINE COMPOUNDS AND USE THEREOF” (PTC Therapeutics, Inc., priority 2021, published 2025)
